{
  "source": "patent US8227452B2",
  "about": "“Use of a steroid prodrug for the treatment of disease of the posterior segment of the eye” (Novagali Pharma SA, priority 2006, dated 2012)",
  "key": {"[1]": {"settings": "subtenon administration; cited from earlier work"}, "[2]": {"settings": "rabbit, in vivo", "excerpt": "Analytes and internal standard (roxithromycine) were extracted from the tissues using acetonitrile and separated by reverse phase liquid chromatography with a C8 column and a gradient mobile phase. […] The unweighed linear model was applied."}, "[3]": {"settings": "cited from earlier work"}, "[4]": {"settings": "high-dose intraocular, long-term follow-up; cited from earlier work"}, "[5]": {"settings": "implantation of 0.59 mg or 2.1 mg, noninfectious posterior uveitis patients; cited from earlier work"}, "[6]": {"settings": "0.59 mg intravitreal implant, patients with diabetic macular edema; cited from earlier work"}, "[7]": {"settings": "single oral administration of 7.5 mg dexamethasone"}},
  "note": "Where two headings read alike, the source gives them in different places.",
  "data": [
    {"smiles": "CC1(C)O[C@@H]2C[C@H]3[C@@H]4CCC5=CC(=O)C=C[C@]5(C)[C@@]4(F)[C@@H](O)C[C@]3(C)[C@]2(C(=O)CO)O1", "note": "[triamcinolone acetonide]", "values": [
      {"measurement": "Patients with intraocular pressure rise", "setting": "[1]", "result": 21, "unit": "%"}
    ]},
    {"smiles": "C[C@@H]1C[C@H]2[C@@H]3CCC4=CC(=O)C=C[C@]4(C)[C@@]3(F)[C@@H](O)C[C@]2(C)[C@@]1(O)C(=O)CO", "note": "[D, dexamethasone]", "values": [
      {"measurement": "Concentration in choroid, mean", "setting": "[2]; 1 days", "result": 12, "unit": "nmol/g"},
      {"measurement": "Concentration in retina, mean", "setting": "[2]; 1 days", "result": 7, "unit": "nmol/g"},
      {"measurement": "Concentration in choroid, mean", "setting": "[2]; 7 days", "result": 12, "unit": "nmol/g"},
      {"measurement": "Concentration in retina, mean", "setting": "[2]; 7 days", "result": 11, "unit": "nmol/g"},
      {"measurement": "Concentration in choroid, mean", "setting": "[2]; 14 days", "result": 9, "unit": "nmol/g"},
      {"measurement": "Concentration in retina, mean", "setting": "[2]; 14 days", "result": 6, "unit": "nmol/g"},
      {"measurement": "Concentration in choroid, mean", "setting": "[2]; 28 days", "result": 4, "unit": "nmol/g"},
      {"measurement": "Concentration in retina, mean", "setting": "[2]; 28 days", "result": 4, "unit": "nmol/g"},
      {"measurement": "Concentration in aqueous humor, mean", "setting": "[2]; 60 days", "result": 0, "unit": "nmol/g"},
      {"measurement": "Concentration in choroid, mean", "setting": "[2]; 60 days", "result": 3, "unit": "nmol/g"},
      {"measurement": "Concentration in retina, mean", "setting": "[2]; 60 days", "result": 2, "unit": "nmol/g"},
      {"measurement": "Dexamethasone penetration into the vitreous humour", "setting": "[3]; repeated topical application: 1 drop of 0.1% dexamethasone phosphate drops hourly for 10 hours", "result": "less than 2 ng/ml"},
      {"measurement": "Serum level", "setting": "[3]; [7]", "result": 60, "unit": "ng/mL"},
      {"measurement": "Vitreous level", "setting": "[3]; [7]", "result": 5, "unit": "ng/mL"}
    ]},
    {"smiles": "CC1(C)O[C@@H]2C[C@H]3[C@@H]4C[C@H](F)C5=CC(=O)C=C[C@]5(C)[C@@]4(F)[C@@H](O)C[C@]3(C)[C@]2(C(=O)CO)O1", "note": "[fluocinolone acetonide]", "values": [
      {"measurement": "Eyes developing elevated IOP", "setting": "[4]", "result": 100, "unit": "%"},
      {"measurement": "Eyes requiring implant removal", "setting": "[4]", "result": "approximately 60%"},
      {"measurement": "Eyes showing nonischemic central retinal vein occlusion", "setting": "[4]", "result": 30, "unit": "%"},
      {"measurement": "Augmentation of the need of IOP lowering agents", "setting": "[5]", "result": 5, "unit": "fold"},
      {"measurement": "Serious cataract progression", "setting": "[6]", "result": 43.1, "unit": "%"},
      {"measurement": "Serious intraocular pressure rise", "setting": "[6]", "result": 8.6, "unit": "%"}
    ]}
  ]
}
